pIC50: −log10 of the molar value.
Molecular target: T1, USP7 (Homo sapiens, UniProt Q93009)
T1 construct: USP7, construct USP7 (208-1102) 6*His, Viva Biotech; initiator Met (N); TEV site (C); 6*His (C); purchased Viva Biotech
Assay: USP7 Assay A and B (Ubiquitin-Rhodamine 110 assay)
Type: biochemical
Conditions: Ub-Rh110 substrate 25 nM, read-out: USP7_IC50
Procedure: Each assay was performed in a final volume of 15 μL in assay buffer containing 20 mM Tris-HCl (pH 8.0, (1M Tris-HCl, pH 8.0 solution; Corning 46-031-CM)), 1 mM GSH (L-Glutathione reduced; Sigma #G4251), 0.03% BGG (0.22 μM filtered, Sigma, #G7516-25G), and 0.01% Triton X-100 (Sigma, #T9284-10L). Nanoliter quantities of either an 8-point or 10-point, 3-fold serial dilution in DMSO was pre-dispensed into assay plates (Perkin Elmer, ProxiPlate-384 F Plus, #6008269) for a final test concentration range of either 25 μM to 11 nM or 25 μM to 1.3 nM, respectively. The final concentration of the enzyme (USP7, construct USP7 (208-1102) 6*His, Viva Biotech) in the assay was 62.5 pM. Final substrate (Ub-Rh110; Ubiquitin-Rhodamine 110, R&D Systems #U-555) concentration was 25 nM with [Ub-Rh110]<<Km. 5 μL of 2× enzyme was added to the assay plates (pre-stamped with compound) and preincubated with USP7 for 30 min. 5 μL of 2×Ub-Rh110 was then added to assay plates. Plates were incubated stacked for 20 min at room temperature before 5 μL of stop solution (final concentration of 10 mM citric acid in assay buffer (Sigma, #251275-500G)). Fluorescence was read on the Envision (Excitation at 485 nm and Emission at 535 nm; Perkin Elmer) or on the PheraSTAR (Excitation at 485 nm and Emission at 535 nm; BMG Labtech).
Each assay was performed in a final volume of 20 μL in assay buffer containing 20 mM Tris-HCl (pH 8.0, (1M Tris-HCl, pH 8.0 solution; Corning 46-031-CM)), 2 mM CaCl2 (1M calcium chloride solution; Sigma #21114), 1 mM GSH (L-Glutathione reduced; Sigma #G4251), 0.01% Prionex (0.22 μM filtered, Sigma #G-0411), and 0.01% Triton X-100. Stock compound solutions were stored at −20° C. as 10 mM in DMSO. Up to 1 month prior to the assay, 2 mM test compounds were pre-dispensed into assay plates (Black, low volume; Corning #3820) and frozen at −20° C. Prestamped assay plates were allowed to warm to room temperature on the day of the assay. For the screen, 100 nL of 2 mM was pre-dispensed for a final screening concentration of 10 μM (DMSO(fc)=0.5%). For follow-up studies, 250 nL of an 8-point, 3-fold serial dilution in DMSO was pre-dispensed into assay plates for a final test concentration of 25 μM-11 nM (1.25c % DMSO final concentration). Unless otherwise indicated, all follow-up assays were run on triplecate plates. Enzyme (USP7, construct Met (208-1102)-TEV-6*His; Viva Q93009-1) concentration and incubation times were optimized for the maximal signal-to-background while maintaining initial velocity conditions at a fixed substrate concentration. The final concentration of the enzyme in the assay was either 75 pM or 250 pM. Final substrate (Ub-Rh110; Ubiquitin-Rhodamine 110, R&D Systems (biotechne)#U-555) concentration was 25 nM with [Ub-Rh110]<<Km. Compounds were either not preincubated or preincubated with USP7 between 30 to 120 min prior to the addition of 10 μL of 2×Ub-Rh110 to compound plates. Plates were incubated stacked for either 23 or 45 min at room temperature before fluorescence was read on the Envision (Excitation at 485 nm and Emission at 535 nm; Perkin Elmer) or on the PheraSTAR (Excitation at 485 nm and Emission at 535 nm; BMG Labtech).
Data from USP7 Assays A and B were reported as percent inhibition (inh) compared with control wells based on the following equation: % inh=1−((FLU−AveLow)/(AveHigh−AveLow)) where FLU=measured Fluorescence, AveLow=average Fluorescence of no enzyme control (n=16), and AveHigh=average Fluorescence of DMSO control (n=16). IC50 values were determined by curve fitting of the standard 4 parameter logistic fitting algorithm included in the Activity Base software package: IDBS XE Designer Model205. Data was fitted using the Levenburg Marquardt algorithm.

T1 sequence (Q93009 208-1102): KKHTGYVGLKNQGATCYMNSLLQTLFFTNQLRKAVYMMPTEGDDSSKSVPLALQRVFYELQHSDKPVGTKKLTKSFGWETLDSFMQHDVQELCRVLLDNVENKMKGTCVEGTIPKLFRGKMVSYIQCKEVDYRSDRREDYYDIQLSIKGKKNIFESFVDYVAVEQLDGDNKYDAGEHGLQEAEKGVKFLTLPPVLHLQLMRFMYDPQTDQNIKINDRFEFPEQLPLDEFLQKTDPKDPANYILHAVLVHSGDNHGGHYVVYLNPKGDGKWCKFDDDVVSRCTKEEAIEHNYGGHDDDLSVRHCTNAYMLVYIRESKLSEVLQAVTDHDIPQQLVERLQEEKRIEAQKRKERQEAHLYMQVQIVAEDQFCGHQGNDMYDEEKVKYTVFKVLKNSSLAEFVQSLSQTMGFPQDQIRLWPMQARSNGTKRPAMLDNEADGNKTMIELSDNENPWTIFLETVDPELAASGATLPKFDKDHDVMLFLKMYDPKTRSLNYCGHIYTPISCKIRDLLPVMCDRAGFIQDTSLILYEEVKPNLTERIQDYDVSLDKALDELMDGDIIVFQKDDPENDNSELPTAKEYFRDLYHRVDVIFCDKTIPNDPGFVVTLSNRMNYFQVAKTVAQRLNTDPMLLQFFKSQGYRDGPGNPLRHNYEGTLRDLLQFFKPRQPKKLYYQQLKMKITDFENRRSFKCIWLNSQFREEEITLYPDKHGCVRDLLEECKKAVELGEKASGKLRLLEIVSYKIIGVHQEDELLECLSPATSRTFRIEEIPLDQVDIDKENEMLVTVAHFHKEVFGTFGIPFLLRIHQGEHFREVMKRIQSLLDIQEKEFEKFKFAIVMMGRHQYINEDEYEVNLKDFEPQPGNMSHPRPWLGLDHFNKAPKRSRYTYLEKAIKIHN

Molecule	pIC50
O=C(c1ccc(F)cc1)N1CCC(O)(Cn2cnc3c(-c4cccc(CO)c4)nsc3c2=O)CC1 [Compound I-4, 6-{[1-(4-fluorobenzoyl)-4-hydroxypiperidin-4-yl]methyl}-3-[3-(hydroxymethyl)phenyl]-6H,7H-[1,2]thiazolo[4,5-d]pyrimidin-7-one]	5.00 to 6.00
O=C(C[C@@H](c1ccccc1)C(F)F)N1CCC(O)(Cn2cnc3c(-c4ccccc4)nsc3c2=O)CC1 [Compound I-19, 6-({1-[(3 S)-4,4-difluoro-3-phenylbutanoyl]-4-hydroxypiperidin-4-yl}methyl)-3-phenyl-6H, 7H-[1,2]thiazolo[4,5-d]pyrimidin-7-one]	6.00 to 6.30
O=C(CC(c1ccccc1)C(F)F)N1CCC(O)(Cn2cnc3c(-c4ccccc4)nsc3c2=O)CC1 (stereo not drawn) [Compound I-17, 6-{[1-(4,4-difluoro-3-phenylbutanoyl)-4-hydroxypiperidin-4-yl]methyl}-3-phenyl-6H,7H-[1,2]thiazolo[4,5-d]pyrimidin-7-one]	5.00 to 6.00
COc1ccc(C(=O)N2CCC(O)(Cn3cnc4c(-c5ccc(OC)cc5)n[nH]c4c3=O)CC2)cc1 [Compound I-21, 6-{[4-hydroxy-1-(4-methoxybenzoyl)piperidin-4-yl]methyl}-3-(4-methoxyphenyl)-1H,6H,7H-pyrazolo[4,3-d]pyrimidin-7-one]	6.00 to 6.30
3-(4-fluoro-3-methoxyphenyl)-6-{[1-(4-fluorobenzoyl)-4-hydroxypiperidin-4-yl]methyl}-6H,7H-[1,2]thiazolo[4,5-d]pyrimidin-7-one [Compound I-9]	< 5.00
COc1ccc(C(=O)N2CCC(O)(Cn3cnc4c(-c5ccc(F)cc5)nsc4c3=O)CC2)cc1 [Compound I-3, 3-(4-fluorophenyl)-6-{[4-hydroxy-1-(4-methoxybenzoyl)piperidin-4-yl]methyl}-6H,7H-[1,2]thiazolo[4,5-d]pyrimidin-7-one]	5.00 to 6.00
O=C(CCC(F)(F)F)N1CCC(O)(Cn2cnc3c(-c4ccc(F)cc4)nsc3c2=O)CC1 [Compound I-25, 3-(4-fluorophenyl)-6-{[4-hydroxy-1-(4,4,4-trifluorobutanoyl)piperidin-4-yl]methyl}-6H,7H-[1,2]thiazolo[4,5-d]pyrimidin-7-one]	< 5.00
COc1ccc(-c2n[nH]c3c(=O)n(CC4(O)CCN(C(=O)c5ccc(F)cc5)CC4)cnc23)cc1 [Compound I-6, 6-{[1-(4-fluorobenzoyl)-4-hydroxypiperidin-4-yl]methyl}-3-(4-methoxyphenyl)-1H, 6H,7H-pyrazolo[4,3-d]pyrimidin-7-one]	> 6.30
C[C@H](CC(=O)N1CCC(O)(Cn2cnc3c(-c4ccccc4)nsc3c2=O)CC1)c1ccccc1 [Compound I-13, 6-({4-hydroxy-1-[(3R)-3-phenylbutanoyl]piperidin-4-yl}methyl)-3-phenyl-6H,7H-[1,2]thiazolo[4,5-d]pyrimidin-7-one]	5.00 to 6.00

From patent publication US10377773B2, “Isothiazolopyrimidinones, pyrazolopyrimidinones, and pyrrolopyrimidinones as ubiquitin-specific protease 7 inhibitors” (FORMA Therapeutics, Inc., priority 2015, dated 2019)
